# How the values were obtained:
# mice = assay: Protection against hypobaric hypoxia in mice (survival time); assay type: in vivo; settings: for activity in the hypobaric hypoxia model (in words): dose of 25 mg/kg, listed in decreasing order of activity
# Procedure: The apparatus used consisted of two chambers A and B connected by a three-way valve. […] The air in chamber A was evacuated to a pressure of 100 mm Hg. The three way valve was turned to disconnect chamber B from room air and to connect it to chamber A. At this point, the pressure in B fell to 200 mm Hg. Survival of residing mice was determined up to a maximum exposure of 15 minutes, and is defined as the time between onset of hypoxia to cessation of respiration.
# [1] = system: guinea-pig ileal preparation; assay: Decrease in contractile response of guinea-pig ileum evoked by the nicotinic agonist DMPP; settings: Cavia porcellus; calculated from logit plot; inhibiting contractile response to 1 uM DMPP; read-out: EC50
# Procedure: A strip of guinea-pig ileum is mounted in an organ bath, as described in EXAMPLE 10. 1-N,N-dimethyl-4-N-phenylpiperazinium chloride (DMPP) is added at intervals of about 15 minutes in order of increasing dose, to cause bath concentrations in the range of 0.1-10 uM. A brief contraction follows each addition. The amplitude of the contractile response is used to derive a dose-response relationship for DMPP. Usually, a bath concentration of 1 uM DMPP will give 90-100% of the maximal response obtainable in the given preparation. One of two procedures follows this: A dose-response of a test compound is determined in the presence of a fixed concentration of DMPP. This is done by incubating the preparation with a given concentration of the test compound, then challenging it with DMPP at a dose to give 1 uM bath concentration. The procedure is repeated with the next higher concentration of the test compound. In the other procedure, the dose-response of DMPP is determined in the presence of a fixed bath concentration of the test compound, usually 200 uM.
# When intramural nerve stimulation occurs, as in the case of electrical stimulation, the contractile effector substance is released from nerve endings by a depolarization wave that propagates along the parasympathetic nerve fiber until its junction with smooth muscle of the ileum. An alternative but not equivalent procedure is stimulation of parasympathetic ganglia by an appropriate nicotinic agonist such as 1-N,N-dimethyl-4-N-phenylpiperazinium chloride (DMPP). Stimulation of parasympathetic ganglia causes a depolarization wave in the post-ganglionic nerve fiber which terminates on the smooth muscle of the ileum, causing release of contractile effector and contraction (see, for example, E. S. Vizi, Acetylcholine release from guinea-pig ileum by parasympathetic ganglion stimulants and gastrin-like polypeptides, Br. J. Pharmacol. 47, 765-77. 1973).
# [2] = system: guinea-pig ileal preparation; assay: Potentiation of adenosine depression of contractile response, procedure I (in the presence of test compound); settings: adenosine 0.4 uM; drug conc. range (uM): 3, 20-400; 5, 50-200; 6, 25-50; drug present
# Procedure: (§1) The test system used is the intramural electrically-stimulated guinea-pig ileal preparation as described in EXAMPLE 10. Adenosine added to the organ bath in rising concentrations in the range 0.1-10 uM causes a dose-dependent decrease in contraction amplitude, with an EC50 of about 1 uM.
# In procedure I, the effect of a given concentration of adenosine, usually, 0.2 or 0.4 uM was first determined and related to the full contractile response in the absence of adenosine. […] The amplitude of the contractile response was recorded. Now, adenosine was added at the same dose initially used, and the effect of adenosine in the presence of the test compound was recorded.
# (§2) The calculated effect is the product of the responses to each of the two agents when applied separately. The potentiation ratio is defined as (100%found)/(100-% calculated).
# [3] = system: guinea-pig ileal preparation; assay: Potentiation of adenosine depression of contractile response, procedure II (after exposure to and washout of test compound); settings: for Mean potentiation ratio ± SEM / potentiation ratio, Max / potentiation ratio, Min: adenosine 0.4 uM, after exposure and washout, 5, 50-400, 6, 50-400; for Mean potentiation ratio ± SEM: drug conc. (uM): 3, 100-400, 2a, 1000, 2, 1000; for potentiation ratio, Max / potentiation ratio, Min: drug conc. range (uM): 3, 100-400; for potentiating effect retained after wash-out from the organ bath (in words): guinea pig ileal preparation after wash-out
# Procedure: as §1, §2
# In all cases, the difference between the calculated and observed response was statistically significant. […] In procedure II, the dose response to adenosine was determined before and after exposure of the preparation to the test drug and washout of the test drug from the organ bath. In this case, significant potentiation of adenosine was observed even though the test drug had been washed out from the organ bath. In fact, the potentiation ratio, as defined earlier, was even higher than found in the presence of the test compounds (Procedure I), reaching very high values.
# Male ICR mice = assay: Protection against maximal electroshock-induced seizure in mice (MES); assay type: in vivo; settings: for protected/total: electroshock 30 min after medication; for ED50: Mus musculus, median effective dose, maximal electroshock, mice, ip, read-out: ED50 (95% confidence limits)
# Procedure: Male ICR mice were used. The rodent shocker apparatus consisted of a shock stimulator Type 221 (Hugo Sachs Elektronik, Germany) with a current setting for mice. Thirty minutes after medication with a given agent, given intraperitoneally as a fine slurry in methyl cellulose 0.5% in distilled water, each mouse received an electroshock of 50 mA for 0.2 seconds, applied to the eye, at a maximum of 250 V/300 mA. The ratio of mice protected against seizure in a group of four per dose was determined and used as an indicator of neuroprotective activity.
# Protection of mice against seizures induced by electroshock is a widely used model to probe for potential anti-epileptic agents (see, for example, Y. I. Sohn et al., Anticonvulsant properties of diphenylthiohydantoin, Arch. Int. Pharmacodyn. 188, 284-289, 1970).
# [4] = system: guinea-pig ileal preparation; assay: Decrease of contractile response to intramural electric stimulation in the guinea-pig ileal preparation; settings: Cavia porcellus; calculated from logit plot; contractile response to intramural electric stimulation; read-out: EC50
# Procedure: A 2 cm-long section of the distal ileum freshly dissected from a CO2-asphyxiated guinea pig is cleaned from adhering tissue and mounted in an organ bath (5 mL) containing Krebs solution constantly aerated with oxygen containing 5% CO2. The initial tension is adjusted at 5 g per strip. Tension is monitored isometrically with a Grass FTC3 force transducer. Intramural electric stimulation is delivered through a platinum electrode from a Grass stimulator model s88, s44 at supramaximal voltage (V) and a frequency of 0.1/s. The preparation develops a rhythmic contractile response at maximal amplitude which is stable over time. Addition of test drugs to the organ bath causes a dose-dependent decrease in contraction amplitude which is stable over 5-8 minutes. The relative decrease in contractile response indicates the relative potency of a given agent in a series.
# Blocking or decreasing neural excitability evoked by programmed electric stimulation is another indicator of a compound's potential neuroprotective activity. A convenient test system uses the guinea-pig ileal preparation mounted in an organ bath (see, for example, Eiichi Hayashi et al., European J. Pharmacol 48, 297-307, 1978).
# [5] = Mus musculus, ip, mice, 200 mm Hg, read-out: survival ± SD (survival time as percent of vehicle control)
Compound,"response vs control in vivo at 12.5 mg/kg (mice; Mus musculus, 12.5 mg/kg, ip, mice, 200 mm Hg, read-out: survival ± SD (survival time as percent of vehicle control)) [%]",response vs control in vivo at 25 mg/kg (mice; [5]) [%],response vs control in vivo at 50 mg/kg (mice; [5]) [%],response vs control in vivo at 100 mg/kg (mice; [5]) [%],activity in the hypobaric hypoxia model (in words) (mice),EC50 [1] [µM],Mean potentiation ratio ± SEM [2],"potentiation ratio, Max [2]","potentiation ratio, Min [2]",Mean potentiation ratio ± SEM [3],"potentiation ratio, Max [3]","potentiation ratio, Min [3]",potentiating effect retained after wash-out from the organ bath (in words) [3],protected/total (Male ICR mice; 50 mg/kg intraperitoneally),protected/total (Male ICR mice; 75 mg/kg intraperitoneally),protected/total (Male ICR mice; 100 mg/kg intraperitoneally),ED50 (Male ICR mice) [mg/kg],EC50 [4] [µM],rate of restoration of the original response to adenosine after washout ([3]; after exposure to and washout of the potentiating agent)
"O=CNC1=CCc2ccccc21 [Compound 5, N-Formyl-3-amino-1H-indene]",248 ± 154,586 ± 253,331 ± 272,489 ± 286,strong activity,34,2.19 ± 0.36,2.60,1.47,5.55 ± 1.0,7.28,3.78,prolonged potentiating effect,0/4,1/4,4/4,79.4,188,–
"CC(=O)NC1=CCc2cc(Cl)ccc21 [Compound 6, N-Acetyl-3-amino-6-chloro-1H-indene]",–,393 ± 110,234 ± 120,294 ± 267,strong activity,27,1.93 ± 0.39,2.32,1.54,8.82 ± 1.2,12.28,6.86,prolonged potentiating effect,2/4,–,4/4,50,133,slowest
